Test results as given in patent US12448383B2, “Compounds and methods for treatment of viral infections” (priority 2022, dated 2025).
Read-outs that look alike come from different tables or passages of the source.

How the values were obtained:
[1] = test system: Caco-2 cells (clone C2BBe1); test: CACO-2 permeability; type: in vitro ADME; design: unit not given here; settings: for DM Caco2 A to B: apical to basolateral, donor pH 6.5, receiver pH 7.4; for DM Caco2 B to A: basolateral to apical
Summary of the method: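 Caco-2 monolayers grown 21 days on collagen-coated transwells and checked for integrity by TEER. Donor buffer was HBSS/HEPES/glucose pH 6.5 with 200 μM BNPP; receiver was pH 7.4 with BSA. Compounds were dosed apically or basolaterally for A-to-B and B-to-A transport, with receiver sampling at 1 and 2 h, LC-MS/MS analysis and percent recovery.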

[2] = test system: Respiratory syncytial virus recombinant with luciferase (RSV-Luc5) in HEp-2 cells; test: microbe, parasite or virus in culture; type: cell-based; settings: human respiratory syncytial virus
[3] = Stability in pH2 buffered solution; type: physicochemical; settings: pH2 phosphate buffer, 40° C.; for pH 2 Stability 24 h % AN: Table N2
Summary of the method: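 Compounds diluted from 1 mg/mL acetonitrile stock to 50 μg/mL in 50 mM phosphate buffer with 150 mM NaCl at pH2 or pH7, held at 40° C. for 24 hrs. UPLC sampling at 0, 3, 6, 9, 12 hrs, plus 24 hrs from oven-stored duplicate; reported as % area normalized of compound peak.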

GI S9 stability = type: in vitro ADME; settings: human, s9, pH 7.4
[4] = HEp-2, 72 h, read-out: RSV Hep2 EC50

Compound | DM Caco2 A to B [1] | DM Caco2 B to A [1] | EC50 [2, 4] [nM] | pH 2 Stability 24 h % AN [3] [% AN] | half-life at 2 µM (GI S9 stability) [h] | Stability at pH2, 0 hr [3] [% AN] | Stability at pH2, 3 hr [3] [% AN] | Stability at pH2, 6 hr [3] [% AN] | Stability at pH2, 9 hr [3] [% AN] | Stability at pH2, 12 hr [3] [% AN] | Stability at pH2, 24 hr [3] [% AN] | logD (physchem) | EC50 ([2]; HEp-2, read-out: EC50 RSVFluc-Hep2 384 V2) [nM]
CC12CCC(C1)C(C)(C)C2OC(=O)OC[C@H]1O[C@@](C#N)(c2ccc3c(N)ncnn23)[C@H](O)[C@@H]1O (mixture of isomers) [Compound 48, ((2R,3S,4R,5R)-5-(4-aminopyrrolo[2,1-f][1,2,4]triazin-7-yl)-5-cyano-3,4-dihydroxytetrahydrofuran-2-yl)methyl (1,3,3-trimethylbicyclo[2.2.1]heptan-2-yl) carbonate] | 6.19 | 12.52 | 2350 | 100 |  |  |  |  |  |  |  |  | 
CC(C)OC(=O)OC[C@H]1O[C@@](C#N)(c2ccc3c(N)ncnn23)[C@H](O)[C@@H]1O [Compound 4, [(2R,3S,4R,5R)-5-(4-aminopyrrolo[2,1-f][1,2,4]triazin-7-yl)-5-cyano-3,4-dihydroay-tetrahydrofuran-2-yl]methyl isopropyl carbonate] | 0.545 | 5.29 | 606 | 98 | 4.21 | 98.5 | 98.3 | 98.5 | 98.4 | 98.5 | 98.3 |  | 
CCOC(=O)OC[C@H]1O[C@@](C#N)(c2ccc3c(N)ncnn23)[C@H](O)[C@@H]1O [Compound 6, ((2R,3S,4R,5R)-5-(4-aminopyrrolo[2,1-f][1,2,4]triazin-7-yl)-5-cyano-3,4-dihydroxytetrahydrofuran-2-yl)methyl ethyl carbonate] | 0.21 | 2.77 | 1120 | 100 | 11.9 |  |  |  |  |  |  |  | 
CC(C)(C)OC(=O)OC[C@H]1O[C@@](C#N)(c2ccc3c(N)ncnn23)[C@H](O)[C@@H]1O [Compound 46, ((2R,3S,4R,5R)-5-(4-aminopyrrolo[2,1-f][1,2,4]triazin-7-yl)-5-cyano-3,4-dihydroxytetrahydrofuran-2-yl)methyl tert-butyl carbonate] | 0.76 | 10.66 | 2320 | 4 | 7.32 |  |  |  |  |  |  |  | 
CC1(OC(=O)OC[C@H]2O[C@@](C#N)(c3ccc4c(N)ncnn34)[C@H](O)[C@@H]2O)CCCCC1 [Compound 47, ((2R,3S,4R,5R)-5-(4-aminopyrrolo[2,1-f][1,2,4]triazin-7-yl)-5-cyano-3,4-dihydroxytetrahydrofuran-2-yl)methyl (1-methylcyclohexyl) carbonate] | 1.68 | 11.38 | 2330 | 1 |  |  |  |  |  |  |  |  | 
CC(C)(OC(=O)OC[C@H]1O[C@@](C#N)(c2ccc3c(N)ncnn23)[C@H](O)[C@@H]1O)c1ccncc1 [Compound 49, ((2R,3S,4R,5R)-5-(4-aminopyrrolo[2,1-f][1,2,4]triazin-7-yl)-5-cyano-3,4-dihydroxytetrahydrofuran-2-yl)methyl (2-(pyridin-4-yl)propan-2-yl) carbonate] | 0.13 | 3.48 | > 50000 | 97 |  |  |  |  |  |  |  |  | 
CC1(C)[C@@H]2CC[C@@]1(C)[C@@H](OC(=O)OC[C@H]1O[C@@](C#N)(c3ccc4c(N)ncnn34)[C@H](O)[C@@H]1O)C2 [Compound 51, ((2R,3S,4R,5R)-5-(4-aminopyrrolo[2,1-f][1,2,4]triazin-7-yl)-5-cyano-3,4-dihydroxytetrahydrofuran-2-yl)methyl ((1R,2S,4R)-1,7,7-trimethylbicyclo[2.2.1]heptan-2-yl) carbonate] | 4.35 | 17.19 | 2140 | 98 |  |  |  |  |  |  |  |  | 
CC(C)C(=O)O[C@H]1[C@@H](OC(=O)C(C)C)[C@](C#N)(c2ccc3c(N)ncnn23)O[C@@H]1COC(=O)OC(C)(C)C [Compound 58, (2R,3R,4R,5R)-2-(4-aminopyrrolo[2,1-f][1,2,4]triazin-7-yl)-5-(((tert-butoxycarbonyl)oxy)methyl)-2-cyanotetrahydrofuran-3,4-diyl bis(2-methylpropanoate)] | 5.67 | 6.86 | 1360 | 2 |  |  |  |  |  |  |  |  | 
CC(C)OC(=O)OC[C@H]1O[C@@](C#N)(c2ccc3c(N)ncnn23)[C@H](OC(=O)C(C)C)[C@@H]1OC(=O)C(C)C [Compound 59, (2R,3R,4R,5R)-2-(4-aminopyrrolo[2,1-f][1,2,4]triazin-7-yl)-2-cyano-5-(((isopropoxycarbonyl)oxy)methyl)tetrahydrofuran-3,4-diyl bis(2-methylpropanoate)] | 11.61 | 17.7 | 786 | 98 | 0.0239 | 100.0 | 100.0 | 100.0 | 100.0 | 98.9 | 97.9 |  | 
CC(=O)O[C@H]1[C@@H](OC(C)=O)[C@](C#N)(c2ccc3c(N)ncnn23)O[C@@H]1COC(=O)OC(C)C [Compound 65, (2R,3R,4R,5R)-2-(4-aminopyrrolo[2,1-f][1,2,4]triazin-7-yl)-2-cyano-5-(((isopropoxycarbonyl)oxy)methyl)tetrahydrofuran-3,4-diyl diacetate] | 3.07 | 7.23 | 1080 | 90 |  |  |  |  |  |  |  |  | 
COC(=O)OC[C@H]1O[C@@](C#N)(c2ccc3c(N)ncnn23)[C@H](OC(C)=O)[C@@H]1OC(C)=O [Compound 128, (2R,3R,4R,5R)-2-(4-aminopyrrolo[2,1-f][1,2,4]triazin-7-yl)-2-cyano-5-(((methoxycarbonyl)oxy)methyl)tetrahydrofuran-3,4-diyl diacetate] | 3.35 | 5.69 |  | 89 |  | 100.0 | 98.3 | 96.7 | 95.2 | 93.8 | 89.3 |  | 
CCOC(=O)OC[C@H]1O[C@@](C#N)(c2ccc3c(N)ncnn23)[C@H](OC(C)=O)[C@@H]1OC(C)=O [Compound 129, (2R,3R,4R,5R)-2-(4-aminopyrrolo[2,1-f][1,2,4]triazin-7-yl)-2-cyano-5-(((ethoxycarbonyl)oxy)methyl)tetrahydrofuran-3,4-diyl diacetate] | 3.505 | 6.635 |  | 89 |  | 100.0 | 98.4 | 96.9 | 95.5 | 94.0 | 89.4 |  | 
CC(C)OC(=O)Nc1ncnn2c([C@]3(C#N)O[C@H](COC(=O)OC(C)C)[C@@H](O)[C@H]3O)ccc12 [Compound 137, isopropyl (7-((2R,3R,4S,5R)-2-cyano-3,4-dihydroxy-5-(((isopropoxycarbonyl)oxy)methyl)tetrahydrofuran-2-yl)pyrrolo[2, i-f][1,2,4]triazin-4-yl)carbamate] | 0.98 | 11.37 |  | 80 |  |  |  |  |  |  |  | 2 | > 50000
